Measurements: patent US20240409585A1, “MACROCYCLIC IMMUNOMODULATORS” (priority 2021, published 2024)
Bridge positions count the residues as written; N and C are the ends. Square brackets hold non-standard residues; d marks the D form. Peptide text beside a SMILES is read from it. Phe(2,4-Cl2) = N[C@@H](Cc1ccc(Cl)cc1Cl)C(=O)O; Tyr(Ph) = N[C@@H](Cc1ccc(Oc2ccccc2)cc1)C(=O)O; Bip = N[C@@H](Cc1ccc(-c2ccccc2)cc1)C(=O)O; Phe(2-CN) = N#Cc1ccccc1C[C@H](N)C(=O)O; Phe(2-Cl) = N[C@@H](Cc1ccccc1Cl)C(=O)O; 1Nal = N[C@@H](Cc1cccc2ccccc12)C(=O)O; 2Nal = N[C@@H](Cc1ccc2ccccc2c1)C(=O)O; Cit = NC(=O)NCCC[C@H](N)C(=O)O; dOrn = NCCC[C@@H](N)C(=O)O; hSer = N[C@@H](CCO)C(=O)O; NMeA = CN[C@@H](C)C(=O)O; Nle = CCCC[C@H](N)C(=O)O; Nva = CCC[C@H](N)C(=O)O; Aib = CC(C)(N)C(=O)O

Biological target: T1, PE-labeled human PD-L1-Ig binding to Jurkat cell line over-expressing human PD-1 (Jurkat-PD-1) (Homo sapiens, UniProt Q15116)
T1 construct: expressed in transfected cells; host or cells: Jurkat
T1 sequence (Q15116 25-288): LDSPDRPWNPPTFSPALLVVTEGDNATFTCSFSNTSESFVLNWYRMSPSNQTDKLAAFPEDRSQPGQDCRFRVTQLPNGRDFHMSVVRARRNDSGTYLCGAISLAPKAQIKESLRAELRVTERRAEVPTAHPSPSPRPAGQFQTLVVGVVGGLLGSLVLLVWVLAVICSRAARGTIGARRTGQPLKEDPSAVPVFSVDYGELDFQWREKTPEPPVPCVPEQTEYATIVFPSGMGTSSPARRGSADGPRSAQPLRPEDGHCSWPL
Assay: Jurkat-PD-1 Cell Binding High-Content Screening Assay (CBA): Method 1
Details: Jurkat-hPD-1 cells, PE-labeled PD-L1-Ig 20 nM final; read-out: Jurkat HPDL1 PD1 IC50 (uM) (Method 1)

IC50 [µM] | Compound
0.3 | CC(C)C[C@@H]1NC(=O)[C@H](Cc2c[nH]c3ccccc23)NC(=O)[C@H](CC(=O)O)NC(=O)[C@H](Cc2ccc(Oc3ccccc3)cc2)NC(=O)[C@H](Cc2ccccc2)NC(=O)CSC[C@@H](C(=O)N[C@@H](C)C(N)=O)NC(=O)[C@H](CO)NC(=O)[C@H](C(C)C)NC(=O)[C@H](CC(C)C)NC(=O)[C@H](CC(N)=O)NC(=O)[C@@H](C)NC(=O)[C@H](C)N(C)C(=O)[C@H](C(C)C)NC(=O)[C@H](Cc2ccc(-c3ccccc3)cc2)NC1=O [Compound 1813] ({CH2CO}-F[Tyr(Ph)]DWL[Bip]V[NMeA][dA]NLVSCA-NH2; thioether N-14)
0.3 | CC(C)C[C@@H]1NC(=O)[C@H](Cc2c[nH]c3ccccc23)NC(=O)[C@H](CC(=O)O)NC(=O)[C@H](Cc2ccc(O)cc2)NC(=O)[C@H](Cc2ccccc2)NC(=O)CSC[C@@H](C(=O)NCC(N)=O)NC(=O)[C@H](CO)NC(=O)[C@H](C(C)C)NC(=O)[C@H](CC(C)C)NC(=O)[C@H](CC(N)=O)NC(=O)[C@H](CCO)NC(=O)[C@H](C)N(C)C(=O)[C@H](C(C)C)NC(=O)[C@H](Cc2ccc(-c3ccccc3)cc2)NC1=O [Compound 1814] ({CH2CO}-FYDWL[Bip]V[NMeA][hSer]NLVSCG-NH2; thioether N-14)
0.31 | CC(C)C[C@@H]1NC(=O)CSC[C@@H](C(=O)NCC(N)=O)NC(=O)[C@H](CO)NC(=O)[C@H](C(C)C)NC(=O)[C@H](CC(C)C)NC(=O)[C@H](CC(N)=O)NC(=O)[C@H](CC(N)=O)NC(=O)[C@H](C)N(C)C(=O)[C@H](C(C)C)NC(=O)[C@H](Cc2ccc(-c3ccccc3)cc2)NC(=O)[C@H](CC(C)C)NC(=O)[C@H](Cc2c[nH]c3ccccc23)NC(=O)[C@H](CC(=O)O)NC(=O)[C@H](Cc2ccc(O)cc2)NC1=O [Compound 1815] ({CH2CO}-LYDWL[Bip]V[NMeA]NNLVSCG-NH2; thioether N-14)
0.32 | CCCC[C@@H]1NC(=O)[C@H](CC(N)=O)NC(=O)[C@@H](C)NC(=O)[C@H](C)N(C)C(=O)[C@H](C(C)C)NC(=O)[C@H](Cc2ccc(-c3ccccc3)cc2)NC(=O)[C@H](CC(C)C)NC(=O)[C@H](Cc2c[nH]c3ccccc23)NC(=O)[C@H](CC(=O)O)NC(=O)[C@H](Cc2ccc(O)cc2)NC(=O)[C@H](Cc2ccccc2)NC(=O)CSC[C@@H](C(=O)N[C@@H](C)C(N)=O)NC(=O)[C@H]([C@@H](C)O)NC(=O)[C@H](CCCNC(=N)N)NC1=O [Compound 1816] ({CH2CO}-FYDWL[Bip]V[NMeA][dA]N[Nle]RTCA-NH2; thioether N-14)
0.42 | CC(C)C[C@@H]1NC(=O)[C@H](Cc2c[nH]c3ccccc23)NC(=O)[C@H](CC(=O)O)NC(=O)[C@H](Cc2ccc(O)cc2)NC(=O)[C@H](Cc2ccccc2)NC(=O)CSC[C@@H](C(=O)NCC(N)=O)NC(=O)[C@H](CO)NC(=O)[C@H](C(C)C)NC(=O)[C@H](CC(C)C)NC(=O)[C@H](CC(N)=O)NC(=O)C(C)(C)NC(=O)[C@H](C)N(C)C(=O)[C@H](C(C)C)NC(=O)[C@H](Cc2ccc(-c3ccccc3)cc2)NC1=O [Compound 1818] ({CH2CO}-FYDWL[Bip]V[NMeA][Aib]NLVSCG-NH2; thioether N-14)

Further lines, the molecule ahead of its results:

Compound | IC50 [µM]
CC(C)C[C@@H]1NC(=O)[C@H](Cc2c[nH]c3ccccc23)NC(=O)[C@H](CC(=O)O)NC(=O)[C@H](Cc2ccc3ccccc3c2)NC(=O)[C@H](Cc2ccccc2)NC(=O)CSC[C@@H](C(=O)N[C@@H](C)C(N)=O)NC(=O)[C@H](CO)NC(=O)[C@H](C(C)C)NC(=O)[C@H](CC(C)C)NC(=O)[C@H](CC(N)=O)NC(=O)[C@@H](C)NC(=O)[C@H](C)N(C)C(=O)[C@H](C(C)C)NC(=O)[C@H](Cc2ccc(-c3ccccc3)cc2)NC1=O [Compound 1800] ({CH2CO}-F[2Nal]DWL[Bip]V[NMeA][dA]NLVSCA-NH2; thioether N-14) | 0.18
CC(C)C[C@@H]1NC(=O)[C@H](Cc2c[nH]c3ccccc23)NC(=O)[C@H](CC(=O)O)NC(=O)[C@H](Cc2ccc(O)cc2)NC(=O)[C@H](Cc2ccccc2)NC(=O)CSC[C@@H](C(=O)N[C@@H](C)C(N)=O)NC(=O)[C@H](CO)NC(=O)[C@H](C(C)C)NC(=O)[C@H](CC(C)C)NC(=O)[C@H](CC(N)=O)NC(=O)[C@@H](CCCN)NC(=O)[C@H](C)N(C)C(=O)[C@H](C(C)C)NC(=O)[C@H](Cc2ccc(-c3ccccc3)cc2)NC1=O [Compound 1802] ({CH2CO}-FYDWL[Bip]V[NMeA][dOrn]NLVSCA-NH2; thioether N-14) | 0.19
CCC[C@@H]1NC(=O)[C@H](C)N(C)C(=O)[C@H](C(C)C)NC(=O)[C@H](Cc2ccc(-c3ccccc3)cc2)NC(=O)[C@H](CC(C)C)NC(=O)[C@H](Cc2c[nH]c3ccccc23)NC(=O)[C@H](CC(=O)O)NC(=O)[C@H](Cc2ccc(O)cc2)NC(=O)[C@H](Cc2ccccc2)NC(=O)CSC[C@@H](C(=O)NCC(N)=O)NC(=O)[C@H](CO)NC(=O)[C@H](C(C)C)NC(=O)[C@H](CC(C)C)NC(=O)[C@H](CC(N)=O)NC1=O [Compound 1803] ({CH2CO}-FYDWL[Bip]V[NMeA][Nva]NLVSCG-NH2; thioether N-14) | 0.2
CC(C)C[C@@H]1NC(=O)[C@H](Cc2c[nH]c3ccccc23)NC(=O)[C@H](CC(=O)O)NC(=O)[C@H](Cc2ccc(O)cc2)NC(=O)[C@H](Cc2ccccc2)NC(=O)CSC[C@@H](C(=O)N[C@@H](C)C(N)=O)NC(=O)[C@H](CO)NC(=O)[C@H](C(C)C)NC(=O)[C@H](CC(C)C)NC(=O)[C@H](CC(N)=O)NC(=O)[C@@H](CCCNC(=N)N)NC(=O)[C@H](C)N(C)C(=O)[C@H](C(C)C)NC(=O)[C@H](Cc2ccc(-c3ccccc3)cc2)NC1=O [Compound 1804] ({CH2CO}-FYDWL[Bip]V[NMeA][dR]NLVSCA-NH2; thioether N-14) | 0.21
CC(C)C[C@@H]1NC(=O)[C@H](Cc2c[nH]c3ccccc23)NC(=O)[C@H](CC(=O)O)NC(=O)[C@H](Cc2cccc3ccccc23)NC(=O)[C@H](Cc2ccccc2)NC(=O)CSC[C@@H](C(=O)N[C@@H](C)C(N)=O)NC(=O)[C@H](CO)NC(=O)[C@H](C(C)C)NC(=O)[C@H](CC(C)C)NC(=O)[C@H](CC(N)=O)NC(=O)[C@@H](C)NC(=O)[C@H](C)N(C)C(=O)[C@H](C(C)C)NC(=O)[C@H](Cc2ccc(-c3ccccc3)cc2)NC1=O [Compound 1805] ({CH2CO}-F[1Nal]DWL[Bip]V[NMeA][dA]NLVSCA-NH2; thioether N-14) | 0.23
CC(C)C[C@@H]1NC(=O)[C@H](Cc2c[nH]c3ccccc23)NC(=O)[C@H](CC(=O)O)NC(=O)[C@H](Cc2ccccc2C#N)NC(=O)[C@H](Cc2ccccc2)NC(=O)CSC[C@@H](C(=O)N[C@@H](C)C(N)=O)NC(=O)[C@H](CO)NC(=O)[C@H](C(C)C)NC(=O)[C@H](CC(C)C)NC(=O)[C@H](CC(N)=O)NC(=O)[C@@H](C)NC(=O)[C@H](C)N(C)C(=O)[C@H](C(C)C)NC(=O)[C@H](Cc2ccc(-c3ccccc3)cc2)NC1=O [Compound 1806] ({CH2CO}-F[Phe(2-CN)]DWL[Bip]V[NMeA][dA]NLVSCA-NH2; thioether N-14) | 0.23
CC(C)C[C@@H]1NC(=O)[C@H](Cc2c[nH]c3ccccc23)NC(=O)[C@H](CC(=O)O)NC(=O)[C@H](Cc2ccccc2Cl)NC(=O)[C@H](Cc2ccccc2)NC(=O)CSC[C@@H](C(=O)N[C@@H](C)C(N)=O)NC(=O)[C@H](CO)NC(=O)[C@H](C(C)C)NC(=O)[C@H](CC(C)C)NC(=O)[C@H](CC(N)=O)NC(=O)[C@@H](C)NC(=O)[C@H](C)N(C)C(=O)[C@H](C(C)C)NC(=O)[C@H](Cc2ccc(-c3ccccc3)cc2)NC1=O [Compound 1807] ({CH2CO}-F[Phe(2-Cl)]DWL[Bip]V[NMeA][dA]NLVSCA-NH2; thioether N-14) | 0.24
CC(C)C[C@@H]1NC(=O)[C@H](Cc2c[nH]c3ccccc23)NC(=O)[C@H](CC(=O)O)NC(=O)[C@H](Cc2ccc(O)cc2)NC(=O)[C@H](Cc2cnc[nH]2)NC(=O)CSC[C@@H](C(=O)NCC(N)=O)NC(=O)[C@H](CO)NC(=O)[C@H](C(C)C)NC(=O)[C@H](CC(C)C)NC(=O)[C@H](CC(N)=O)NC(=O)[C@H](CC(N)=O)NC(=O)[C@H](C)N(C)C(=O)[C@H](C(C)C)NC(=O)[C@H](Cc2ccc(-c3ccccc3)cc2)NC1=O [Compound 1808] ({CH2CO}-HYDWL[Bip]V[NMeA]NNLVSCG-NH2; thioether N-14) | 0.86
CC(C)C[C@@H]1NC(=O)[C@H](Cc2c[nH]c3ccccc23)NC(=O)[C@H](CC(=O)O)NC(=O)[C@H](Cc2ccc(Cl)cc2Cl)NC(=O)[C@H](Cc2ccccc2)NC(=O)CSC[C@@H](C(=O)N[C@@H](C)C(N)=O)NC(=O)[C@H](CO)NC(=O)[C@H](C(C)C)NC(=O)[C@H](CC(C)C)NC(=O)[C@H](CC(N)=O)NC(=O)[C@@H](C)NC(=O)[C@H](C)N(C)C(=O)[C@H](C(C)C)NC(=O)[C@H](Cc2ccc(-c3ccccc3)cc2)NC1=O [Compound 1810] ({CH2CO}-F[Phe(2,4-Cl2)]DWL[Bip]V[NMeA][dA]NLVSCA-NH2; thioether N-14) | 0.28
CC(C)C[C@@H]1NC(=O)[C@H](Cc2c[nH]c3ccccc23)NC(=O)[C@H](CC(=O)O)NC(=O)[C@H](Cc2ccc(O)cc2)NC(=O)[C@H](Cc2ccccc2)NC(=O)CSC[C@@H](C(=O)NCC(N)=O)NC(=O)[C@H](CO)NC(=O)[C@H](C(C)C)NC(=O)[C@H](CC(C)C)NC(=O)[C@H](CC(N)=O)NC(=O)[C@H](CCC(N)=O)NC(=O)[C@H](C)N(C)C(=O)[C@H](C(C)C)NC(=O)[C@H](Cc2ccc(-c3ccccc3)cc2)NC1=O [Compound 1811] ({CH2CO}-FYDWL[Bip]V[NMeA]QNLVSCG-NH2; thioether N-14) | 0.28
CC(C)C[C@@H]1NC(=O)[C@H](Cc2c[nH]c3ccccc23)NC(=O)[C@H](CC(=O)O)NC(=O)[C@H](Cc2ccc(O)cc2)NC(=O)[C@H](Cc2ccccc2)NC(=O)CSC[C@@H](C(=O)NCC(N)=O)NC(=O)[C@H](CO)NC(=O)[C@H](C(C)C)NC(=O)[C@H](CC(C)C)NC(=O)[C@H](CC(N)=O)NC(=O)[C@H](CCCNC(N)=O)NC(=O)[C@H](C)N(C)C(=O)[C@H](C(C)C)NC(=O)[C@H](Cc2ccc(-c3ccccc3)cc2)NC1=O [Compound 1812] ({CH2CO}-FYDWL[Bip]V[NMeA][Cit]NLVSCG-NH2; thioether N-14) | 0.28
